EP1325958A1, “Genetic sequence coding for creatinine deiminase, and its use” (CampusGen GmbH, priority 2002, dated 2003)

Each molecule was assayed on Creatinin-Deiminase (EC 3.5.4.21) aus Tissierella creatinini, heterolog in E. coli exprimiert, gereinigt, SEQ ID NO:2 (assay: Substrate saturation of purified recombinant creatinine deiminase (coupled optical test, Lineweaver-Burk plot)). Conditions: purified recombinant enzyme, 0,06 µg per test, coupled optical test, 37°C, TEA-Puffer pH 8,6, read-out: Km-Wert für Creatinin.
Type: biochemical
Source text: Abb. 1: Biosynthese von Creatin und Creatinin im menschlichen Körper. Die Synthese erfolgt in mehreren Schritten in verschiedenen Körperorganen. Abb. 2: Enzymatische Bestimmung von Creatinin mit Creatininase, Creatin-Kinase, Pyruvat-Kinase und Laktatdehydrogenase. Creatinin wird katalysiert durch Creatininase und Creatin-Kinase gekoppelt mit Pyruvatbildung. Das Pyruvat wird in der Indikatorreaktion in Gegenwart von Laktatdehydrogenase zu Laktat umgesetzt und dabei eine Extinktionsabnahme bei 340 nm von NADH gemessen. Abb.3: Enzymatische Bestimmung von Creatinin mit Creatininase, Creatinase, Sarcosinoxidase und Peroxidase. Creatinin wird katalysiert durch Creatininase, Creatinase und Sarcosinoxidase zu Glycin, Formaldehyd und H2O2 abgebaut. Das H2O2 wird in der Indikatorreaktion mittels Peroxidase anhand der Extinktionszunahme bei 510 oder 546 nm bestimmt. Abb.4: Enzymatische Bestimmung von Creatinin mit Creatinin-Deiminase und Glutamatdehydrogenase. Creatinin wird katalysiert durch Creatinin-Deiminase zu N-Methylhydantoin und Ammoniak abgebaut. Der Ammoniak wird mit α-Ketoglutarat und NADH mittels Glutamat-Dehydrogenase zu Glutamat umgesetzt und photometrisch die Extinktionsabnahme durch Verbrauch an NADH bei 340 bzw. 365 nm gemessen. Abb. 5: Schematische Darstellung des pBluescriptSK^+-Vektors. Gezeigt sind einige Restriktionsschnittstellen. […]

Molecule `CN1CC(=O)N=C1N` [Creatinin] has a Km of 1100 µM.

Same assay, conditions: substrate Creatinin, this enzyme preparation, Proteinkonzentration: 6 µg/ml --> 1467 U/mg

In the case of `CN1CC(=O)N=C1N` [Creatinin], the Vmax was 8,8 U/ml.

These molecules were tested on Creatinin-Deiminase (EC 3.5.4.21) aus Tissierella creatinini, heterolog in E. coli exprimiert, gereinigt, SEQ ID NO:2 (assay: Interference studies: substances added to the standard creatinine deiminase test, enzyme activity determined). Conditions: statement in the text referring to Tabelle 1.
Type: biochemical
Experimental: Dieses erfindungsgemäße Verfahren ermöglicht die Bestimmung von Creatinin bei Einsatz von nur zwei Enzymen, die in einer Mess- bzw. Indikatorreaktion eingesetzt werden, wobei keine komplizierten Hilfsreaktionen erforderlich sind. Wie in Tabelle 1 gezeigt ist, weist die erfindungsgemäße Creatinin-Deiminase eine außerordentlich hohe Spezifität für sein Substrat Creatinin auf. Das Enzym zeigt insbesondere mit Cytosin bis zu einer Konzentration von […] keine Interferenz in der Reaktion. Somit ermöglicht die erfindungsgemäße Creatinin-Deiminase eine Bestimmung von Creatinin auch in Gegenwart anderer Substrate, insbesondere Cytosin ohne das Auftreten einer Interferenz, die das Messergebnis verfälschen würde. Tabelle 1:
Die Aktivität des gereinigten rekombinanten Enzyms wurde durch eine modifizierte enzymatische Methode nach Bergmeyer 1985 (BERGMEYER, H.U. (1985). Methods of enzymatic analysis 8: 488-507) bestimmt. Sie beruht auf der Messung des während der Creatinindeiminierung freigesetzten Ammoniaks in einem gekoppelten optischen Test durch Verbrauch von NADH bei 340 nm bzw. 365 nm. Der Reaktionsansatz enthielt folgende Konzentrationen in einem Endvolumen von 0,6 ml: TEA-Puffer 0,11 mol/l, pH 8,6; Creatinin 1,5 mmol/l; ADP 1,11 mmol/l; DTE 1 mmol/l; NADH 0,11 mmol/l; 2-Oxoglutarat 11 mmol/l; Glutamat-Dehydrogenase 8 U/ml. Nach Inkubation des Reaktionsansatzes (5 min bei 37°C) in einer Küvette im Photometer wurde die Reaktion mit 0,01 ml des gereinigten rekombinanten Enzyms gestartet und die Extinktionsabnahme bei 340 nm beobachtet. Eine Enzymeinheit katalysiert den Abbau von 1 µmol Creatinin/min bei 37°C.
Es wurden Interferenzstudien mit der gereinigten heterolog exprimierten Creatinin-Deiminase mit verschiedenen in Seren relevanten Substanzen durchgeführt. Diese wurden zum Standardtestansatz gegeben und jeweils die Aktivität der Creatinin-Deiminase bestimmt. In Tabelle 1 sind die getesteten relevanten Substanzen aufgelistet, die in den angegebenen Konzentrationen keine Interferenzen mit dem Enzymtest zeigten. Die rekombinante Creatinin-Deiminase zeigte eine außerordentliche Substratspezifität bei Zusatz der in Tabelle 1 angegebenen Substanzen.

With `Nc1cc[nH]c(=O)n1` [Cytosin] the “keine Interferenz in der Reaktion bis zu einer Konzentration von” value was 2000 mg/mL.

Same assay, conditions: substance added to the standard test (Creatinin 1,5 mmol/l, 37°C, pH 8,6); no interference with the enzyme test at the stated concentration

Compared with `Nc1nc(=O)[nH]cc1F` [5-Fluorocytosin], `Nc1cc[nH]c(=O)n1` [Cytosin] is 2-fold higher in “Keine Interferenzen bis zu einer Konzentration von” value: 1000 mg/L for the first, 2000 mg/L for the second.

First: CC(C)=O [Aceton]
Second: O=C(O)C(=O)O [Oxalsäure]
The “Keine Interferenzen bis zu einer Konzentration von” value of the first is 5-fold higher: 2000 mg/L for the first, 400 mg/L for the second.

Going from `O=C1O[C@H]([C@@H](O)CO)C(O)=C1O` [Ascorbinsäure] to `CC(N)(Cc1ccc(O)c(O)c1)C(=O)O` (stereo not drawn) [α-Methyl-Dopa], the “Keine Interferenzen bis zu einer Konzentration von” value falls from 200 mg/L to 107 mg/L (1.9-fold).

First: OC[C@H]1OC(O)[C@H](O)[C@@H](O)[C@@H]1O (some centres unmarked) [Glukose]
Second: CN[C@H](CC(C)C)C(=O)N[C@H]1C(=O)N[C@@H](CC(N)=O)C(=O)N[C@H]2C(=O)N[C@H]3C(=O)N[C@H](C(=O)N[C@H](C(=O)O)c4cc(O)cc(O)c4-c4cc3ccc4O)[C@H](O)c3ccc(c(Cl)c3)Oc3cc2cc(c3O[C@@H]2O[C@H](CO)[C@@H](O)[C@H](O)[C@H]2O[C@H]2C[C@](C)(N)[C@H](O)[C@H](C)O2)Oc2ccc(cc2Cl)[C@H]1O [Vancomycin]
The “Keine Interferenzen bis zu einer Konzentration von” value of the first is 3.8-fold higher: 1100 mg/L for the first, 288 mg/L for the second.

Going from `COc1cc(Cc2cnc(N)nc2N)cc(OC)c1OC` [Trimethoprim] to `Cc1cc(NS(=O)(=O)c2ccc(N)cc2)no1` [Sulfatmethoxazol], the “Keine Interferenzen bis zu einer Konzentration von” value rises from 46 mg/L to 500 mg/L (11-fold).

Going from `C[C@H](CS)C(=O)N1CCC[C@H]1C(=O)O` [Captopril] to `CN(CC(=O)O)C(=N)N` [Creatin], the “Keine Interferenzen bis zu einer Konzentration von” value rises from 83 mg/L to 2000 mg/L (24-fold).

Compared with `NS(=O)(=O)c1cc(C(=O)O)c(NCc2ccco2)cc1Cl` [Fuoresemid], `O=C(O)c1cc(N=Nc2ccc(S(=O)(=O)Nc3ccccn3)cc2)ccc1O` [Salazosulfapyridin] is 8.1-fold lower in “Keine Interferenzen bis zu einer Konzentration von” value: 4433 mg/L for the first, 550 mg/L for the second.

`N[C@@H](Cc1c[nH]cn1)C(=O)O` [Histidin] was tested, and the “Keine Interferenzen bis zu einer Konzentration von” value was 2250 mg/L.

For `NCC(O)c1cccc(O)c1` (centres unmarked) [Norfenefrin], the “Keine Interferenzen bis zu einer Konzentration von” value was 1,5 mg/l.
In the case of `CNC[C@H](O)c1ccc(O)c(O)c1` [Epinephrin], the “Keine Interferenzen bis zu einer Konzentration von” value was 0,05 mg/l.
